# Experimental data from patent US20230057130A1, “FORMULATIONS OF 19-NOR C3,3-DISUBSTITUTED C21-N-PYRAZOLYL STEROID AND METHODS OF USE THEREOF” (priority 2020, published 2023).
# “And” between values parts separate entries of the source, which are not always exact repeats. Identical values can stand only once. Like-named read-outs stand apart in the source and are kept apart here.
# How the values were obtained:
# [1] = Solubility of the compound of formula (I) in aqueous media; assay type: physicochemical
# Description: The compound of formula (I) belongs in the high permeability, poor solubility drug classification (BCS 2) described in the Biopharmaceutics Classification System (BCS). In the improved widely accepted Developability Classification System (DCS) discussed by Butler and Dressman, the high permeability low solubility category is further divided into two classifications. Specifically, the ratio of the dose to the solubility of the drug in FaSSIF can be used to predict the extent of human absorption. Class 2a describes compounds that have good permeability and poor solubility with a smaller dose to solubility ratio. Class 2b describes compounds that have a higher dose to solubility ratio and likely will be incompletely absorbed unless the drug is formulated in an already solubilized form, and therefore might present a major challenge to the formulator. […] That is, even for a dose of 10 mg about only 1.2% of the dose of the drug may dissolve in a glass of water or FaSSIF. For Class 2b compounds the system predicts that particle reduction should have no impact on bioavailability. Martinez and Amidon offer: “In the case of solubility-limited absorption particle size exerts minimal effect on the fraction of drug absorbed. In this situation, fraction of drug absorbed can only be improved by enhancing drug solubility (e.g., via inclusion of surfactants in the drug formulation.) Conversely particle size exerts its greatest effect when solubility is not a problem.” (Martinez and Amidon; J. Clin. Pharmacol.; 2002; 42; 620-643). In light of the very large […] for the compound of formula (I), oral absorption of the compound of formula (I) is solubility limited, and reduction of particle size should not affect its bioavailability.
# [2] = Particle size distribution by laser diffraction (Malvern Mastersizer 2000); assay type: physicochemical; conditions: for Particle Size D10 / Particle Size D50 / Particle Size D90: laser diffraction
# Description: As used herein, the term “particle size” or “particle size distribution (PSD)” when referring to the compound of formula (I) is a list of values that defines the relative amount, typically by mass or volume, of particles present according to size. The distribution data may be reported as cumulative distributions and/or as density distributions by volume or mass such as D(v, 0.1), D(v, 0.5) and D(v, 0.9). In various embodiments, the particle size of a compound of formula (I) may be measured using laser diffraction techniques (e.g., dispersing particles in a sample and illuminating the sample in a collimated laser-beam by scattering light over a range of angles). The large particles generate a high scattering intensity at relatively narrow angles to the incident beam, while the smaller particles produce a lower intensity signal but at much wider angles. Using an array of detectors, laser-diffraction analyzers record the pattern of scattered light produced by the sample. With the application of an appropriate model of light behavior the particle-size distribution of the sample can be determined from the scattering data, via a deconvolution step.
# The particle size distribution of Compound 1 was measured using a laser diffraction method. A sample of Compound 1 was either dispersed in water or wetted and dispersed in 0.2% w/v Tween 80 in water to a final concentration spanning approximately 2.5 to 60 mg/mL. Using a Malvern Mastersizer 2000 with a Hydro 2000S sample dispersion unit the obscuration was adjusted to between 10 and 30%. The stir speed was adjusted to 2250-2500 rpm, pre-measurement delay to approximately 30 s, sample measurement time to around 10-15 s, background measurement time to around 10-15 s and the particle shape assumed to be irregular. The samples were at a concentration between 0.0032-0.0044% vol and had specific surface area between 1.65 and 2.10 m^2/g, a surface weighted mean between 2.87 and 3.64 μm, and a volume weighed mean between 3.62 and 4.67 μm. The measurements were obtained using the Mie scattering model (material refractive index=1.520, dispersant refractive index=1.330, absorption=0.001 or 0.1) with normal sensitivity.
# [3] = Pharmacokinetic profile of Form C of Compound 1 (micronized and un-micronized) in rat, oral gavage; assay type: in vivo; conditions: male Sprague-Dawley rats, oral gavage 15 mg/kg; for AUClast / Cmax / Tmax: suspended in 2% aqueous PVP-VA, 15 mg/kg
# Method: Two groups, each with three male Sprague-Dawley rats, received an oral gavage dose of Compound 1 (un-micronized Form C or micronized Form C) suspended in 2% aqueous PVP-VA at a concentration and volume intended to achieve a target dose level of 15 mg/kg.
# Serial blood samples were collected from each animal at 0.25, 0.5, 1, 2, 4, 6, 8 and 24 hours after dosing. Blood samples, which were collected into tubes containing K2EDTA, were processed for plasma. Plasma samples were analyzed for Compound 1 by LC-MS/MS. Non-compartmental pharmacokinetic parameter estimates were calculated from the plasma concentration-time data for each animal. […] In Table 8 the subscripts to AUC last and inf refer to that AUC to the last sampling time point and extrapolated to infinite time, respectively.
# [4] = lot used for 8 kg blend batch, 20 mg dose strength
# [5] = lot used for 12 kg blend batch, 30 mg dose strength
# [6] = lot used for 34.7 kg blend batch, 20 mg dose strength
# [7] = lot used for 52 kg blend batch, 30 mg dose strength
Compound,Particle Size D10 [2],Particle Size D50 [2],Particle Size D90 [2],also measured
"C[C@@]1(O)CC[C@H]2[C@H](CC[C@@H]3[C@@H]2CC[C@]2(C)[C@@H](C(=O)Cn4cc(C#N)cn4)CC[C@@H]32)C1 [Compound 1, 1-(2-((3R,5R,8R,9R,10S,13S,14S,17S)-3-hydroxy-3,13-dimethylhexadecahydro-1H-cyclopenta[a]phenanthren-17-yl)-2-oxoethyl)-1H-pyrazole-4-carbonitrile]",,,,"solubility in aqueous media [1]: practically insoluble; ratio of the dose to solubility in FaSSIF ([1]; 10 mg dose): greater than 10,000; ratio of the dose to solubility in FaSSIF ([1]; 20 mg dose): > 20,000; ratio of the dose to solubility in FaSSIF ([1]; 30 mg dose): > 30,000; ratio of the dose to solubility in FaSSIF ([1]; 90 mg dose): > 90,000; ratio of the dose to solubility in FaSSIF ([1]; 100 mg dose): > 100,000; part of the dose that may dissolve in a glass of water or FaSSIF ([1]; dose of 10 mg): ~1.2%; Biopharmaceutics Classification System (BCS) classification ([1]; high permeability, poor solubility): BCS 2; solubility ([1]; water): 0.8 to 3 µg/mL"
C[C@@]1(O)CC[C@H]2[C@H](CC[C@@H]3[C@@H]2CC[C@]2(C)[C@@H](C(=O)Cn4cc(C#N)cn4)CC[C@@H]32)C1 [Micronized Form A of Compound 1],1.5 μm,4.2 μm,11.1 μm,
C[C@@]1(O)CC[C@H]2[C@H](CC[C@@H]3[C@@H]2CC[C@]2(C)[C@@H](C(=O)Cn4cc(C#N)cn4)CC[C@@H]32)C1 [Micronized Form C of Compound 1],,3.5 μm and 3.2 μm and 4.1 μm and 3.7 μm,6.6 μm and 6.1 μm and 8.0 μm and 8.9 μm,"AUClast [3]: 3647 ng·h/mL; Cmax [3]: 308 ng/mL; Tmax [3]: 6.00 h; Particle Size Distribution D10 [2, 4]: 1.7; Particle Size Distribution D50 [2, 4]: 3.2; Particle Size Distribution D90 [2, 4]: 6.1; Particle Size Distribution D10 [2, 5]: 1.7; Particle Size Distribution D50 [2, 5]: 3.2; Particle Size Distribution D90 [2, 5]: 6.1; Particle Size Distribution D10 [2, 6]: 1.8; Particle Size Distribution D50 [2, 6]: 3.3; Particle Size Distribution D90 [2, 6]: 6.5; Particle Size Distribution D10 [2, 7]: 2.1; Particle Size Distribution D50 [2, 7]: 4.1; Particle Size Distribution D90 [2, 7]: 8.0"
C[C@@]1(O)CC[C@H]2[C@H](CC[C@@H]3[C@@H]2CC[C@]2(C)[C@@H](C(=O)Cn4cc(C#N)cn4)CC[C@@H]32)C1 [Micronized Form C of Compound 1a],0.9 μm,2.4 μm,6.1 μm,
C[C@@]1(O)CC[C@H]2[C@H](CC[C@@H]3[C@@H]2CC[C@]2(C)[C@@H](C(=O)Cn4cc(C#N)cn4)CC[C@@H]32)C1 [Micronized Form C of Compound 1b],0.8 μm,2.1 μm,5.2 μm,
C[C@@]1(O)CC[C@H]2[C@H](CC[C@@H]3[C@@H]2CC[C@]2(C)[C@@H](C(=O)Cn4cc(C#N)cn4)CC[C@@H]32)C1 [Micronized Form C of Compound 1c],1.1 μm,2.7 μm,5.4 μm,
C[C@@]1(O)CC[C@H]2[C@H](CC[C@@H]3[C@@H]2CC[C@]2(C)[C@@H](C(=O)Cn4cc(C#N)cn4)CC[C@@H]32)C1 [Micronized Form C of Compound 1d],1.0 μm,2.4 μm,4.6 μm,
C[C@@]1(O)CC[C@H]2[C@H](CC[C@@H]3[C@@H]2CC[C@]2(C)[C@@H](C(=O)Cn4cc(C#N)cn4)CC[C@@H]32)C1 [Un-micronized Form C of Compound 1],,,,"AUClast [3]: 979 ng·h/mL; Cmax [3]: 83.6 ng/mL; Tmax ([3]; male, Sprague-Dawley, rat, plasma, po, read-out: Tmax): 6.67 h; AUC(0-inf) ([3]; rat, plasma, extrapolated to infinite time): 854 ng·h/mL"
C[C@@]1(O)CC[C@H]2[C@H](CC[C@@H]3[C@@H]2CC[C@]2(C)[C@@H](C(=O)Cn4cc(C#N)cn4)CC[C@@H]32)C1 [Un-micronized Form C of Compound 1a],3.1 μm,11.8 μm,27.1 μm,
C[C@@]1(O)CC[C@H]2[C@H](CC[C@@H]3[C@@H]2CC[C@]2(C)[C@@H](C(=O)Cn4cc(C#N)cn4)CC[C@@H]32)C1 [Un-micronized Form C of Compound 1b],3.2 μm,14.7 μm,33.6 μm,
C[C@@]1(O)CC[C@H]2[C@H](CC[C@@H]3[C@@H]2CC[C@]2(C)[C@@H](C(=O)Cn4cc(C#N)cn4)CC[C@@H]32)C1 [Un-micronized Form C of Compound 1c],3.6 μm,16.0 μm,35.5 μm,
C[C@@]1(O)CC[C@H]2[C@H](CC[C@@H]3[C@@H]2CC[C@]2(C)[C@@H](C(=O)Cn4cc(C#N)cn4)CC[C@@H]32)C1 [Un-micronized Form C of Compound 1d],5.6 μm,16.2 μm,37.7 μm,
